This is an account of results in patent publication US11584714B2 (priority 2018, dated 2023).

Structures can show the parent of a compound that is named as a salt. Where two headings read alike, the source gives them in different places.

Holding throughout (type): biochemical
Assay [1] has as its target human α-thrombin (Homo sapiens (Human), UniProt P00734). Briefly: Enzymatic assay for thrombin (Boc-VPR-AMC substrate).
Assay [2] addresses MASP-2 (CCP1-CCP2-SP) (Homo sapiens (Human), UniProt O00187). Briefly: biochemical. To be noted: for MASP-2 vs. thrombin selectivity: selectivity for MASP-2 inhibition versus thrombin.
Assay [3] deals with mMASP-2 (Mus musculus (Mouse), UniProt Q91WP0). Briefly: Enzymatic inhibition of mMASP-2. Particulars: read-out: mMASP-2 Ki.
Chain of mMASP-2 (Q91WP0 20-685): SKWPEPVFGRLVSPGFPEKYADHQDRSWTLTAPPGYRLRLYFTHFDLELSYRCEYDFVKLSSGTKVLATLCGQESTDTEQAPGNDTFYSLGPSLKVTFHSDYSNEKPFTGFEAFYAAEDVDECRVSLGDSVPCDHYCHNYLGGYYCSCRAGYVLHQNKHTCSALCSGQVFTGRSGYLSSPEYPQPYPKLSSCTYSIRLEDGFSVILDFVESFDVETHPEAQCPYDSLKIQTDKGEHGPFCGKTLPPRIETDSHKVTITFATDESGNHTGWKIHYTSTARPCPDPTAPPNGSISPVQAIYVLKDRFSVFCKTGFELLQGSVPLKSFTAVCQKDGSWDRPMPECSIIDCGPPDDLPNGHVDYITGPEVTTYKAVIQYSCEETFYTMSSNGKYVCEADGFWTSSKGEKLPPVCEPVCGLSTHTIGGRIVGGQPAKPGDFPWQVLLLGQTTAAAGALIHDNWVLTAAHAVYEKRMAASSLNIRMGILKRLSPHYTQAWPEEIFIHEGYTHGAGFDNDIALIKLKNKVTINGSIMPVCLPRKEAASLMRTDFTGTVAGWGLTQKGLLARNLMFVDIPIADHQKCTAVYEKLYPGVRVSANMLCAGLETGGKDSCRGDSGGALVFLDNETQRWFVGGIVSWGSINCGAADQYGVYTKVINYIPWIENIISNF

Chain of MASP-2 (CCP1-CCP2-SP) (O00187 445-686): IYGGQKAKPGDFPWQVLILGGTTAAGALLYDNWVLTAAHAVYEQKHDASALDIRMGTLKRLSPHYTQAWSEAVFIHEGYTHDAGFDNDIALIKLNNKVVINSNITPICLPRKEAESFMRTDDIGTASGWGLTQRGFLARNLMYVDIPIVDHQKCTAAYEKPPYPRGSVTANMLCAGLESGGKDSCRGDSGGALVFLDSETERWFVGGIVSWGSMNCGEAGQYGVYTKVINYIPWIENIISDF

As for `Cc1cc(Cl)cc(CNC(=O)[C@H](C)NC(=O)[C@H](N)CCc2ccccc2)c1O` [compound 1299, (R)-2-Amino-N—((S)-1-((5-chloro-2-hydroxy-3-methylbenzyl)amino)-1-oxopropan-2-yl)-4-phenylbutanamide Hydrochloride], the Ki in assay [1] (read-out: Thrombin Ki) is > 25 µM; in assay [2] (read-out: MASP-2 Ki) it was < 500 nM; in assay [3], 10000 to 25000 nM. The “MASP-2 vs. thrombin selectivity” value in assay [2] was “**** (≥100-fold)”.

Turning to `C[C@H](NC(=O)[C@H]1C[C@H](c2ccccc2)CN1)C(=O)NCc1ccc(C(=N)N)c(F)c1` [compound 1300, (2R,4R)—N—((S)-1-((4-Carbamimidoyl-3-fluorobenzyl)amino)-1-oxopropan-2-yl)-4-phenylpyrrolidine-2-carboxamide Di-trifluoroacetate salt], the Ki in assay [1] (Thrombin Ki (μM)) is 2.5 to 10 µM; in assay [2] (read-out: MASP-2 Ki), < 500 nM; in assay [3], < 500 nM. Further, the “MASP-2 vs. thrombin selectivity” value in assay [2] is given as “*** (≥25 to <100-fold)”.

With `C[C@H](NC(=O)[C@H]1C[C@H](c2ccccc2)CN1)C(=O)NCc1cc(Cl)c[nH]c1=O` [compound 1301, (2R,4R)—N—((S)-1-(((5-Chloro-2-oxo-1,2-dihydropyridin-3-yl)methyl)amino)-1-oxopropan-2-yl)-4-phenylpyrrolidine-2-carboxamide Hydrochloride], the Ki in assay [1] (read-out: Thrombin Ki) is > 25 µM; in assay [2] it was 2500 to 10000 nM; in assay [3], > 25000 nM.

As for `CCc1cccc([C@H]2CN[C@@H](C(=O)N[C@@H](C)C(=O)NCc3ccc(C(=N)N)cc3)C2)c1` [compound 1302, (2R,4S)—N—((S)-1-((4-Carbamimidoylbenzyl)amino)-1-oxopropan-2-yl)-4-(3-ethylphenyl)pyrrolidine-2-carboxamide Dihydrochloride], the inhibition constant (Ki) in assay [1] (Thrombin Ki (μM)) was 0.5 to 2.5 µM; in assay [2] (read-out: MASP-2 Ki) it was < 500 nM; in assay [3] it was < 500 nM. Also, the “MASP-2 vs. thrombin selectivity” value in assay [2] is “*** (≥25 to <100-fold)”.

As for `CCc1cccc([C@H]2CN[C@@H](C(=O)N[C@@H](C)C(=O)NCc3ccc(N)nc3C)C2)c1` [compound 1303, (2R,4S)—N—((S)-1-(((6-Amino-2-methylpyridin-3-yl)methyl)amino)-1-oxopropan-2-yl)-4-(3-ethylphenyl)pyrrolidine-2-carboxamide Dihydrochloride], the values for the Ki in assay [1] (read-out: Thrombin Ki), in assay [2] (read-out: MASP-2 Ki) and in assay [3] were > 25 µM, < 500 nM and 2500 to 10000 nM, respectively. In assay [2], the “MASP-2 vs. thrombin selectivity” value is on record as “*** (≥25 to <100-fold)”.

As for `Cc1nc(N)ccc1CNC(=O)[C@H](C)NC(=O)[C@H]1C[C@H](Cc2ccccc2)CN1` [compound 1304, (2R,4S)—N—((S)-1-(((6-Amino-2-methylpyridin-3-yl)methyl)amino)-1-oxopropan-2-yl)-4-benzylpyrrolidine-2-carboxamide Dihydrochloride], the Ki in assay [1] (Thrombin Ki (μM)) is 0.5 to 2.5 µM; in assay [2] (read-out: MASP-2 Ki) it was < 500 nM; in assay [3], 500 to 2500 nM. For the same molecule, the “MASP-2 vs. thrombin selectivity” value in assay [2] is “*** (≥25 to <100-fold)”.

For `C[C@H](NC(=O)[C@H]1C[C@H](c2ccccc2)CN1)C(=O)NCc1ccc(C(=N)NC(=O)OCC(F)(F)F)cc1` [compound 1305, 2,2,2-Trifluoroethyl (imino(4-(((S)-2-((2R,4R)-4-phenylpyrrolidine-2-carboxamido)propanamido)methyl)phenyl)methyl)carbamate], the Ki in assay [1] (read-out: Thrombin Ki) was > 25 µM; in assay [2], 500 to 2500 nM; in assay [3], < 500 nM. Moreover, the “MASP-2 vs. thrombin selectivity” value in assay [2] was “** (≥5.0 to <25-fold)”.

As to `C[C@H](NC(=O)[C@H]1C[C@H](Cc2ccccc2)CN1)C(=O)NCc1ccc(C(=N)N)cc1` [compound 1306, (2R,4S)-4-Benzyl-N-((S)-1-((4-carbamimidoylbenzyl)amino)-1-oxopropan-2-yl)pyrrolidine-2-carboxamide Dihydrochloride], the inhibition constant (Ki) was < 0.5 µM in assay [1] (read-out: Thrombin Ki), < 500 nM in assay [2] (read-out: MASP-2 Ki) and < 500 nM in assay [3]. The “MASP-2 vs. thrombin selectivity” value in assay [2] is reported as “* (≥1.0 to <5.0-fold)”.

Take `Cc1cc(Cl)cc(CNC(=O)[C@H](C)NC(=O)[C@H]2C[C@H](Cc3ccccc3)CN2)c1O` [compound 1307, (2R,4S)-4-Benzyl-N-((S)-1-((5-chloro-2-hydroxy-3-methylbenzyl)amino)-1-oxopropan-2-yl)pyrrolidine-2-carboxamide Hydrochloride]: the Ki is > 25 µM in assay [1] (read-out: Thrombin Ki), < 500 nM in assay [2] (read-out: MASP-2 Ki) and < 500 nM in assay [3]. Moreover, the “MASP-2 vs. thrombin selectivity” value in assay [2] is recorded as “**** (≥100-fold)”.

Regarding `Cc1nc(N)ccc1CNC(=O)[C@H](C)NC(=O)[C@H]1C[C@H](c2ccccc2)CCN1` [compound 1308, (2R,4R)—N—((S)-1-(((6-Amino-2-methylpyridin-3-yl)methyl)amino)-1-oxopropan-2-yl)-4-phenylpiperidine-2-carboxamide Dihydrochloride], the values for the Ki in assay [1] (Thrombin Ki (μM)), in assay [2] and in assay [3] were 10 to 25 µM, 500 to 2500 nM and 500 to 2500 nM, respectively. Besides, the “MASP-2 vs. thrombin selectivity” value in assay [2] is given as “** (≥5.0 to <25-fold)”.

Turning to `Cc1nc(N)ccc1CNC(=O)[C@H](C)NC(=O)[C@H]1CN(c2cccc3ccccc23)CCN1` [compound 1309, (R)—N—((S)-1-(((6-Amino-2-methylpyridin-3-yl)methyl)amino)-1-oxopropan-2-yl)-4-(naphthalen-1-yl)piperazine-2-carboxamide Dihydrochloride], the inhibition constant (Ki) in assay [1] (read-out: Thrombin Ki) is > 25 µM; in assay [2] (read-out: MASP-2 Ki), < 500 nM; in assay [3] it was < 500 nM. Besides, the “MASP-2 vs. thrombin selectivity” value in assay [2] is reported as “**** (≥100-fold)”.

`Cc1nc(N)ccc1CNC(=O)[C@H](C)NC(=O)[C@H]1C[C@@H](Oc2ccccc2)CN1` [compound 1310, (2R,4R)—N—((S)-1-(((6-Amino-2-methylpyridin-3-yl)methyl)amino)-1-oxopropan-2-yl)-4-phenoxypyrrolidine-2-carboxamide Dihydrochloride]: the figures for the inhibition constant Ki in assay [1] (read-out: Thrombin Ki), in assay [2] and in assay [3] were > 25 µM, 500 to 2500 nM and > 25000 nM, respectively. The “MASP-2 vs. thrombin selectivity” value in assay [2] was “*** (≥25 to <100-fold)”.

`C[C@H](NC(=O)[C@H]1C[C@H](c2ccccc2)CN1)C(=O)NCc1cnc2[nH]ccc2c1` [compound 1311, (2R,4R)—N—((S)-1-(((1H-Pyrrolo[2,3-b]pyridin-5-yl)methyl)amino)-1-oxopropan-2-yl)-4-phenylpyrrolidine-2-carboxamide Dihydrochloride]: the Ki is > 25 µM in assay [1] (read-out: Thrombin Ki), 2500 to 10000 nM in assay [2] and 2500 to 10000 nM in assay [3]. In assay [2], the “MASP-2 vs. thrombin selectivity” value was “* (≥1.0 to <5.0-fold)”.

As for `C[C@H](NC(=O)[C@@H](CCc1ccccc1)NCCCc1cccc(O)c1)C(=O)NCc1ccc(C(=N)N)cc1` [compound 1312, (R)—N—((S)-1-((4-Carbamimidoylbenzyl)amino)-1-oxopropan-2-yl)-2-((3-(3-hydroxyphenyl)propyl)amino)-4-phenylbutanamide Di-trifluoroacetate salt], the Ki is < 0.5 µM in assay [1] (read-out: Thrombin Ki), < 500 nM in assay [2] (read-out: MASP-2 Ki) and < 500 nM in assay [3]. The “MASP-2 vs. thrombin selectivity” value in assay [2] is given as “* (≥1.0 to <5.0-fold)”.

For `C[C@H](NC(=O)[C@H](N)CCc1ccccc1)C(=O)NCc1cc(C#N)ccc1O` [compound 1314, (R)-2-Amino-N—((S)-1-((5-cyano-2-hydroxybenzyl)amino)-1-oxopropan-2-yl)-4-phenylbutanamide Trifluoroacetate salt], the inhibition constant (Ki) in assay [1] (read-out: Thrombin Ki) is > 25 µM; in assay [2] it was 10000 to 25000 nM; in assay [3], > 25000 nM. In addition, the “MASP-2 vs. thrombin selectivity” value in assay [2] is “* (≥1.0 to <5.0-fold)”.

As to `CC(C)c1cccc([C@H]2CN[C@@H](C(=O)N[C@@H](C)C(=O)NCc3ccc(C(=N)N)cc3)C2)c1` [compound 1316, (2R,4S)—N—((S)-1-((4-Carbamimidoylbenzyl)amino)-1-oxopropan-2-yl)-4-(3-isopropylphenyl)pyrrolidine-2-carboxamide Dihydrochloride], the Ki is 0.5 to 2.5 µM in assay [1] (Thrombin Ki (μM)), < 500 nM in assay [2] (read-out: MASP-2 Ki) and < 500 nM in assay [3]. For the same molecule, the “MASP-2 vs. thrombin selectivity” value in assay [2] is given as “*** (≥25 to <100-fold)”.

As for `Cc1cc(Cl)cc(CNC(=O)[C@H](C)NC(=O)[C@H]2CN(c3cccc4ccccc34)CCN2)c1O` [compound 1317, (R)—N—((S)-1-((5-Chloro-2-hydroxy-3-methylbenzyl)amino)-1-oxopropan-2-yI)-4-(naphthalen-1-yl)piperazine-2-carboxamide Hydrochloride], the Ki is > 25 µM in assay [1] (read-out: Thrombin Ki), < 500 nM in assay [2] (read-out: MASP-2 Ki) and 500 to 2500 nM in assay [3].

Regarding `Cc1nc(N)ccc1CNC(=O)[C@H](C)NC(=O)[C@@H](CCc1ccccc1)NCCCc1cccc(O)c1` [compound 1319, (R)—N—((S)-1-(((6-Amino-2-methylpyridin-3-yl)methyl)amino)-1-oxopropan-2-yl)-2-((3-(3-hydroxyphenyl)propyl)amino)-4-phenylbutanamide Dihydrochloride salt], the results for the Ki in assay [1] (Thrombin Ki (μM)), in assay [2] (read-out: MASP-2 Ki) and in assay [3] were 2.5 to 10 µM, < 500 nM and 10000 to 25000 nM, respectively. The “MASP-2 vs. thrombin selectivity” value in assay [2] is recorded as “** (≥5.0 to <25-fold)”.

As for `Cc1nc(N)ccc1CNC(=O)[C@H](C)NC(=O)[C@H]1C[C@H](Cc2cccc(C(F)(F)F)c2)C(=O)N1` [compound 1320, (2R,4S)—N—((S)-1-(((6-Amino-2-methylpyridin-3-yl)methyl)amino)-1-oxopropan-2-yl)-5-oxo-4-(3-(trifluoromethyl)benzyl)pyrrolidine-2-carboxamide Di-trifluoroacetate salt], the figures for the Ki in assay [1] (Thrombin Ki (μM)), in assay [2] (read-out: MASP-2 Ki) and in assay [3] were 0.5 to 2.5 µM, < 500 nM and 500 to 2500 nM, respectively. Further, in assay [2], the “MASP-2 vs. thrombin selectivity” value was “** (≥5.0 to <25-fold)”.

Take `Cc1nc(N)ccc1CNC(=O)[C@@H](C)NC(=O)[C@H]1C[C@H](Cc2cccc(C(F)(F)F)c2)C(=O)N1` [compound 1321, (2R,4S)—N—((R)-1-(((6-Amino-2-methylpyridin-3-yl)methyl)amino)-1-oxopropan-2-yl)-5-oxo-4-(3-(trifluoromethyl)benzyl)pyrrolidine-2-carboxamide Di-trifluoroacetate salt]: the Ki was > 25 µM in assay [1] (read-out: Thrombin Ki), 10000 to 25000 nM in assay [2] and > 25000 nM in assay [3].
